Test results taken from paper PMC7179297, “Preclinical Antimalarial Combination Study of M5717, a Plasmodium falciparum Elongation Factor 2 Inhibitor, and Pyronaridine, a Hemozoin Formation Inhibitor” (Antimicrobial Agents and Chemotherapy, 2020).
pEC50: −log10 of the molar value.

Test system: P. falciparum NF54 strain
Assay: [3H]hypoxanthine incorporation assay, individual drugs
Assay type: cell-based
Conditions: Plasmodium falciparum, 72 h
Procedure: IC50 and drug interaction studies were performed as previously described ([27], [28]). […] Cultures were harvested onto glass fiber filters, washed, and the radioactivity was counted using a MicroBetaplate liquid scintillation counter and recorded as counts per minute (cpm) per well. Results are expressed as a percentage of the untreated controls (see the supplemental material for more details). page 2: 25 In vitro isobolograms 26 Compounds were tested against intraerythrocytic forms of P. falciparum derived from asynchronous stock cultures 27 of lab strain NF54 (Schiphol airport strain of unknown origin), as previously described.i,ii The culture medium was […] 29 mM HEPES, 25 mM NaHCO3 (pH 7.3), 0.36 mM hypoxanthine and 100 μg/mL neomycin. Human type A+ 30 erythrocytes served as host cells. […] 31 in humidified modular chambers. Testing of the individual drugs was carried out in 96-well microtiter plates. The 32 compounds were dissolved in DMSO (10 mg/mL), prediluted in hypoxanthine-free culture medium and titrated in […] After addition of an equal volume of parasite culture with a parasitemia of […] Parasite growth was measured by the incorporation of radiolabelled [3H]hypoxanthine (0.25 µCi in […] 37 assay duration) prior to the termination of the test. Cultures were harvested onto glass-fiber filters and washed with 38 distilled water. The radioactivity was counted using a MicroBetaplate liquid scintillation counter (Wallac, Zürich, 39 Switzerland) and the results recorded as counts per minute (cpm) per well at each drug concentration and expressed 40 as percentage of the untreated controls. Fifty percent inhibitory concentrations (IC50) were determined by linear 41 interpolation.v 42 43 For data interpretation, the IC50s of the drugs in combination were expressed as fractions of the IC50s of the drugs 44 alone. These fractions were called “Fractional Inhibitory Concentrations” (FIC) for drug A and for drug B, 45 respectively. 46 FIC Drug A = IC50 A (B) IC50 A […] 49 50 Formulation 51 Pyronaridine (tetraphosphate salt) and […] (succinate salt) were solubilized in a vehicle consisting of 70% […] 54 55 2

Structure (SMILES) | pEC50
O=C1C(O)=C([C@H]2CC[C@H](c3ccc(Cl)cc3)CC2)C(=O)c2ccccc21 [atovaquone] | 9.40
[H]/N=C(\N/C(=N/[H])Nc1ccc(Cl)cc1)NC(C)C [proguanil] | 5.26
